In assay [1] the test system is phosphorylation of RSK1(S380) (the downstream target of ERK1/2). Briefly: Phospho-RSK1(S380) ELISA assay in HT-29 cells. It counts as cell-based, human. To be noted: read-out: Mechanistic Cell Assay RSK1 Phos HT29 IC50. Put shortly:
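IC50 values derive from a variable-slope sigmoidal fit of sandwich-ELISA signal (450 nm) for RSK1 Ser380 phosphorylation. The cells were B-RafV600E HT-29 colorectal line, exposed to serially diluted compound for 2 h after overnight seeding, then lysed at 4° C.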

The test system of assay [2] is HCT116 (colorectal carcinoma, K Ras G13D) cells. Briefly: Cell proliferation (Alamar Blue) assay, HCT116. The class given is cell-based, human. The gist of the method: (§1)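 A 72 h exposure to compound (3-fold series, typically 0.0005 to 10 uM) of cells seeded at 5000/well precedes a 1-3 h Alamar Blue (1×) incubation. Growth inhibition is quantified by fluorescence and fitted to give IC50.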
Background: Alamar Blue is a resazurin reagent that responds to reducing activity.

A further assay deals with T1, ERK1 (Homo sapiens, UniProt P27361).
T1 construct: purchased Jubilant Biosys
The assay is described as follows: ERK1 HTRF (biochemical) assay. As for the experimental part:
(§2) ERK1 and ERK2 HTRF (Biochemical) Assays
These assays employed a homogeneous time resolved fluorescence (HTRF) technique. […] The plate was incubated at room temperature for 60 min with shaking. […] The IC50 values (half maximal inhibitory concentration values) were subsequently determined using a sigmoidal dose-response curve (variable slope) in GraphPad Prism® 5 software.
A general note: In TR-FRET formats the signal depends on donor and acceptor labels being close together.

Assay [3] concerns HT-29 (colorectal carcinoma, B-RafV600E) cells. Briefly: Cell proliferation (Alamar Blue) assay, HT-29. The class given is cell-based, human. To be noted: Homo sapiens, HT-29, HT29 cells. Put shortly:
as §1

The next assay has as its target T2, ERK2 (Homo sapiens, UniProt P28482).
T2 construct: purchased Jubilant Biosys
The assay is described as follows: ERK2 HTRF (biochemical) assay. As for the experimental part:
as §2
These assays employed a homogeneous time resolved fluorescence (HTRF) technique. The compounds were serially diluted by half-log with concentrations ranging from 0.0005 to 10 uM in the assay buffer (50 mM Tris pH=7.5, 1 mM EGTA, 2 mM DTT, 10 mM MgCl2, 0.100 Tween-20) and 20 uL of substrate-ATP mix [1 uM Biotin-LC-Myelin Basic Protein (MBP) derivatized Peptide (Anaspec)-24 uM ATP (Sigma)] was added to each well of the assay plate. Then 10 uL of enzyme mix [25 nM ERK1 or ERK2 (Jubilant Biosys) in assay buffer] was added to each well. The plate was incubated at room temperature for 60 min with shaking. The HTRF mix [625 nM LANCER Ultra Europium-anti-phospho-MBP (Perkin Elmer) and 2 nM Phycolink® Streptavidin-Allophycocyanin (SA-APC) (Prozyme) in HTRF buffer (50 mM Tris-HCl pH=7.5, 100 mM NaCl, 0.1% BSA, 0.05% Tween20, 0.5 mM EDTA)] was prepared and 75 uL of this mix was added to the HTRF plate. After incubation for 60 min at room temperature, 10 uL of the reaction mixture was transferred to the HTRF assay plate and incubated for 45 min at room temperature with shaking. Plate was read using Pherastar in HTRF mode (excitation 337 nm, emission 665 & 620 nm). The IC50 values (half maximal inhibitory concentration values) were subsequently determined using a sigmoidal dose-response curve (variable slope) in GraphPad Prism® 5 software.

Setting [4] is: Homo sapiens, HT-29, HT29 cells, phospho-RSK1(S380).
Setting [5] is: Homo sapiens, HCT-116, HCT116 cells.
Setting [6] is: Homo sapiens, HT-29, HT29 cells.

Counter-ions that a name gives are not always drawn. Like-named read-outs stand apart in the source and are kept apart here. Some results are limits rather than exact numbers.

T2 sequence (P28482 whole entry): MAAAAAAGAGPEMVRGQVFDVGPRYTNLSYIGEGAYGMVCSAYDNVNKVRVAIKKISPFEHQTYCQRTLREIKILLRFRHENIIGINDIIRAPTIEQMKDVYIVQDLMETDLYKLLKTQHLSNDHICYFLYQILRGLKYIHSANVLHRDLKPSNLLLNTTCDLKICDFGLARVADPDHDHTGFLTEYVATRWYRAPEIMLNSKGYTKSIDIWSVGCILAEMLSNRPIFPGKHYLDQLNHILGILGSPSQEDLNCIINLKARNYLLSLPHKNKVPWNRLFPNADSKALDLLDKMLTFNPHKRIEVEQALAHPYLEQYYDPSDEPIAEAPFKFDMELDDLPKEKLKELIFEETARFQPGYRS
T1 sequence (P27361 whole entry): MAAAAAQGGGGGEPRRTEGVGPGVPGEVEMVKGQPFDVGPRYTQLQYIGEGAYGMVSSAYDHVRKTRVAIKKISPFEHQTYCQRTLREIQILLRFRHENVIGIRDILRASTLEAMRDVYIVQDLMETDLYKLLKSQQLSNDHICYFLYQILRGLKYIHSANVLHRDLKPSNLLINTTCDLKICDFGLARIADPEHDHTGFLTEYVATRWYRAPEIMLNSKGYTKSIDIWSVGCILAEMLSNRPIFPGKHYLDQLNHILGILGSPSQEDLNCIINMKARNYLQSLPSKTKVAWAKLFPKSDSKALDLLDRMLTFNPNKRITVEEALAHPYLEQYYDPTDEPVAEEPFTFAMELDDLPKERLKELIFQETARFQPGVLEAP

The term IC50 denotes the midpoint of a concentration-inhibition curve. For the compound `Cc1cnc(Nc2ccccn2)cc1-n1ccc(C(=O)NC(CO)c2ccccc2)c1` (centres unmarked) [Example 149, N-(2-hydroxy-1-phenylethyl)-1-(5-methyl-2-(pyridin-2-ylamino)pyridin-4-yl)-1H-pyrrole-3-carboxamide], the IC50 in assay [1] (setting [4]) was greater than 2500 nM; in assay [2] (setting [5]), greater than 2500 nM; on ERK1 (HTRF biochemical assay), 50 to 100 nM; in assay [3] it was greater than 2500 nM; at ERK2 (HTRF biochemical assay), no more than 50 nM.
`Cc1cnc(Nc2ccc3c(c2)OC(F)(F)O3)cc1-n1cnc(C(=O)NC(CO)c2ccccc2)c1` (centres unmarked) [Example 86, 1-(2-((2,2-difluoro-benzo[d][1,3]dioxol-5-yl)-amino)-5-methyl-pyridin-4-yl)-N-(2-hydroxy-1-phenyl-ethyl)-1H-imidazole-4-carboxamide]: the IC50 in assay [2] (setting [5]) is greater than 2500 nM; on ERK1 (HTRF biochemical assay), 50 to 100 nM; in assay [3], greater than 2500 nM; against ERK2 (HTRF biochemical assay) it was 50 to 100 nM.
`Cc1cnc(NC2CCOCC2)nc1-n1cnc(C(=O)NCc2cc(F)cc(Cl)c2CO)c1` [Compound #297, N-(3-Chloro-5-fluoro-2-(hydroxymethyl)benzyl)-1-(5-methyl-2-((tetrahydro-2H-pyran-4-yl)amino)pyrimidin-4-yl)-1H-imidazole-4-carboxamide]: the 50% inhibitory concentration (IC50) in assay [1] (setting [4]) is 250 to 500 nM; in assay [2] (setting [5]), 100 to 250 nM; against ERK1 (HTRF biochemical assay) it was less than 50 nM; in assay [3], no more than 100 nM; against ERK2 (HTRF biochemical assay) it was no more than 50 nM.
Turning to `Cc1cnc(N[C@H]2CCOC2)nc1-n1cnc(C(=O)NCc2c(F)cccc2F)c1` [Example 316, (S)-N-(2,6-difluorobenzyl)-1-(5-methyl-2-((tetrahydrofuran-3-yl)amino)pyrimidin-4-yl)-1H-imidazole-4-carboxamide], the IC50 in assay [1] (setting [6]) was greater than 2500 nM; in assay [2] (setting [5]), greater than 2500 nM; at ERK1 (HTRF), 500 to 2500 nM; in assay [3] it was greater than 2500 nM; against ERK2 (HTRF) it was 100 to 500 nM.
With `Cc1cnc(N[C@H]2CCOC2)nc1-n1cnc(C(=O)NC(C)(C)c2cccc(Cl)c2CO)c1` [Example 347, (S)-N-(2-(3-chloro-2-(hydroxymethyl)-phenyl)propan-2-yl)-1-(5-methyl-2-((tetrahydrofuran-3-yl)amino)pyrimidin-4-yl)-1H-imidazole-4-carboxamide], the 50% inhibitory concentration (IC50) lay within 100 to 500 nM against ERK1 (HTRF) and 50 to 100 nM at ERK2 (HTRF).
Regarding `Cc1cnc(NC2CCOCC2)nc1-n1cnc(C(=O)NC(CN)c2cc(F)cc(Cl)c2)c1` (centres unmarked) [Example 236, N-(2-amino-1-(3-chloro-5-fluorophenyl)ethyl)-1-(5-methyl-2-((tetrahydro-2H-pyran-4-yl)amino)pyrimidin-4-yl)-1H-imidazole-4-carboxamide], the IC50 is no more than 100 nM in assay [1] (setting [4]); no more than 100 nM in assay [2] (setting [5]); less than 50 nM on ERK1 (HTRF biochemical assay); no more than 100 nM in assay [3]; no more than 50 nM against ERK2 (HTRF biochemical assay).
As for `Cc1cnc(N[C@H]2CCOC2)nc1-n1cnc(C(=O)NCc2ccc(C(F)(F)F)c(F)c2)c1` [Example 321, (S)-N-(3-fluoro-4-(trifluoromethyl)benzyl)-1-(5-methyl-2-((tetrahydrofuran-3-yl)amino)pyrimidin-4-yl)-1H-imidazole-4-carboxamide], the IC50 is 500 to 2500 nM in assay [1] (setting [6]); greater than 2500 nM in assay [2] (setting [5]); 50 to 100 nM against ERK1 (HTRF); greater than 2500 nM in assay [3]; no more than 50 nM against ERK2 (HTRF).
Regarding `Cc1cnc(N[C@H]2CCOC2)nc1-n1cnc(C(=O)NCc2cccc(Cl)c2Cl)c1` [Example 319, (S)-N-(2,3-dichlorobenzyl)-1-(5-methyl-2-((tetrahydrofuran-3-yl)amino)pyrimidin-4-yl)-1H-imidazole-4-carboxamide], the half-inhibitory concentration (IC50) in assay [1] (setting [6]) is 500 to 2500 nM; in assay [2] (setting [5]), greater than 2500 nM; against ERK1 (HTRF), less than 50 nM; in assay [3], greater than 2500 nM; against ERK2 (HTRF), no more than 50 nM.
Turning to `Cc1cnc(N[C@H]2CCOC2)nc1-n1cnc(C(=O)NCc2cccc(Cl)c2F)c1` [Example 315, (S)-N-(3-chloro-2-fluorobenzyl)-1-(5-methyl-2-((tetrahydrofuran-3-yl)amino)pyrimidin-4-yl)-1H-imidazole-4-carboxamide], the IC50 was greater than 2500 nM in assay [1] (setting [6]); greater than 2500 nM in assay [2] (setting [5]); less than 50 nM against ERK1 (HTRF); greater than 2500 nM in assay [3]; no more than 50 nM against ERK2 (HTRF).
For `Cc1cccc(CNC(=O)c2cn(-c3nc(N[C@H]4CCOC4)ncc3C)cn2)c1` [Example 323, (S)-1-(5-methyl-2-((tetrahydrofuran-3-yl)amino)pyrimidin-4-yl)-N-(3-methylbenzyl)-1H-imidazole-4-carboxamide], the 50% inhibitory concentration (IC50) is 250 to 500 nM in assay [1] (setting [6]); greater than 2500 nM in assay [2] (setting [5]); less than 50 nM against ERK1 (HTRF); greater than 2500 nM in assay [3]; no more than 50 nM against ERK2 (HTRF).
Take `Cc1cnc(NC2CCOCC2)nc1-n1cnc(C(=O)N[C@H](CN)c2cccc(Cl)c2)c1` [Compound #298, (S)—N-(2-Amino-1-(3-chlorophenyl)ethyl)-1-(5-methyl-2-((tetrahydro-2H-pyran-4-yl)amino)pyrimidin-4-yl)-1H-imidazole-4-carboxamide hydrochloride salt]: the IC50 on ERK1 (HTRF biochemical assay) was less than 50 nM; against ERK2 (HTRF biochemical assay) it was no more than 50 nM.
`Cc1cnc(N[C@H]2CCOC2)nc1-n1cnc(C(=O)NCc2cccc(C(C)(C)C)c2)c1` [Example 327, (S)-1-(5-methyl-2-((tetrahydrofuran-3-yl)amino)pyrimidin-4-yl)-N-(3-tert-butylbenzyl)-1H-imidazole-4-carboxamide]: the IC50 in assay [1] (setting [6]) is 100 to 250 nM; in assay [2] (setting [5]), greater than 2500 nM; against ERK1 (HTRF), less than 50 nM; in assay [3] it was 500 to 2500 nM; against ERK2 (HTRF) it was no more than 50 nM.
Take `Cc1cnc(NC2CC(F)(F)C2)nc1-n1cnc(C(=O)N[C@H](CN)c2cccc(Cl)c2)c1` [Compound #259, (S)—N-(2-Amino-1-(3-chlorophenyl)ethyl)-1-(2-((3,3-difluorocyclobutyl)amino)-5-methylpyrimidin-4-yl)-1H-imidazole-4-carboxamide]: the IC50 in assay [1] (setting [4]) is 100 to 250 nM; in assay [2] (setting [5]) it was no more than 100 nM; against ERK1 (HTRF biochemical assay) it was less than 50 nM; in assay [3], 100 to 250 nM; on ERK2 (HTRF biochemical assay), no more than 50 nM.
As to `Cc1cccc(CNC(=O)c2cn(-c3nc(NC4CCOCC4)ncc3C)cn2)n1` [Example 279, 1-(5-methyl-2-((tetrahydro-2H-pyran-4-yl)amino)pyrimidin-4-yl)-N-((6-methylpyridin-2-yl)methyl)-1H-imidazole-4-carboxamide], the half-inhibitory concentration (IC50) is 100 to 250 nM in assay [1] (setting [4]), 500 to 2500 nM in assay [2] (setting [5]), less than 50 nM against ERK1 (HTRF biochemical assay) and no more than 50 nM on ERK2 (HTRF biochemical assay).
Consider “N-(1-(3-chlorophenyl)-2-hydroxypropyl)-1-(5-methyl-2-((tetrahydro-2H-pyran-4-yl)amino)pyrimidin-4-yl)-1H-imidazole-4-carboxamide (isomer #1) [Example 253]”, for which the IC50 was 500 to 2500 nM in assay [1] (HT29 cells, phospho-RSK1(S380)); greater than 2500 nM in assay [2] (HCT116 cells); less than 50 nM against ERK1 (HTRF biochemical assay); no more than 50 nM against ERK2 (HTRF biochemical assay).
With `CCC(=O)OCc1c(Cl)cccc1CNC(=O)c1cn(-c2nc(N[C@H]3CCOC3)ncc2C)cn1` [Example 346, (S)-2-chloro-6-((1-(5-methyl-2-((tetrahydrofuran-3-yl)amino)pyrimidin-4-yl)-1H-imidazole-4-carboxamido)-methyl)benzyl-propionate], the IC50 was 50 to 100 nM at ERK1 (HTRF) and no more than 50 nM on ERK2 (HTRF).
For the compound `Cc1cnc(Nc2cccnc2)nc1-n1cc(NC(=O)N[C@H](CO)c2cccc(Cl)c2)cn1` [Example 23, (S)-1-(1-(3-chlorophenyl)-2-hydroxy-ethyl)-3-(1-(5-methyl-2-(pyridin-3-yl-amino)pyrimidin-4-yl)-1H-pyrazol-4-yl)urea], the half-maximal inhibitory concentration (IC50) in assay [1] (setting [4]) is greater than 2500 nM; in assay [2] (setting [5]) it was greater than 2500 nM; in assay [3], 500 to 2500 nM.

Values taken from patent US11925629B2, “Heterocyclic inhibitors of ERK1 and ERK2 and their use in the treatment of cancer” (Asana Biosciences, LLC, priority 2015, dated 2024).
